These results are taken from patent publication US6559167B1, “Prodrugs of proton pump inhibitors” (Regents of the University of California, priority 1998, dated 2003).

In one data set the target is T1, gastric H,K-ATPase (Sus scrofa, UniProt P19156).
T1 construct: from tissue; host or cells: hog gastric vesicles (stomach mucosa)
In words: Inhibition of ATPase activity using isolated hog gastric vesicles. The settings on record: for inhibition of enzyme activity after 80 minutes: after 80 minutes at pH 7.4, 37° C.; for inhibition of gastric H,K-ATPase activity initially (before hydrolysis): 10, 20, 50, and 100 μM, pH 7.4, 37° C. Format: biochemical. From the text:
By way of concrete examples, the following tests and results are described. […] This is consistent with the knowledge that the compounds obtained by hydrolysis e. g. LANSOPRAZOLE, OMEPRAZOLE, PANTOPRAZOLE and RABEPRAZOLE are well known H,K-ATPase inhibitors. […] Another good example is 2-(2-carbamoylmethoxy-4-{2-[4-(3-methoxypropoxy)-3-methyl pyridin-2-yl methylsulfinyl]benzimidazole-1-sulfonyl}phenoxy)acetamide. The half life of this compound dependes on pH. […] Based on these measured characteristics the compound 2-(2-carbamoylmethoxy-4-{2-[4-(3-methoxypropoxy)-3-methyl pyridin-2-yl methylsulfinyl]benzimidazole-1-sulfonyl}phenoxy)acetamide is expected to be well absorbed, and slowly release the parent RABEPRAZOLE in the blood, resulting in long-lasting in vivo activity. This compound can also be administered intravenously in an aqueous solution at pH 7.4 which solution may include 2-hydroxypropyl-β-cyclodextrin.
Inhibition of ATPase activity was measured using isolated hog gastric vesicles. The gastric H,K-ATPase (10 μg) was incubated at 37° C. in a solution (1 ml) composed of 0.25M sucrose, 20 mM Pipes/Tris, pH 7.4, 0.15M KCl, 2 mM MgCl2, valinomycin 2 μg/ml, and various concentration of compounds of the invention. At timed intervals, ATP was added (up to 2 mM) and incubated for 15 minutes and amount of released phosphate ion was measured. As a control experiment the prior art drug without a labile group on the benzimidazole nitrogen (e. g. OMEPRAZOLE or LANSOPRAZOLE) was used for measuring inhibition of enzyme activity.

Data set [1] concerns gastric acid secretion of the conscious male rat. Kind of data set: Inhibitory effect on gastric acid secretion of the conscious male rat at timed intervals after oral administration. Format: in vivo. As to conditions: for % inhibition of gastric acid secretion: between 5.5-8.5 hours after oral administration, 10 μmole/kg, histamine and carbachol stimulated, male rat.
The test system of data set [2] is gastric acid secretion (histamine-stimulated acid output), pylorus-ligated male rats. Kind of data set: Initial inhibition of gastric acid secretion after intraduodenal administration to pylorus-ligated rats. Format: in vivo. The settings on record: 10 μmole/kg, after pylorus ligation, histamine 30 mg/kg s.c., acid output over four hours, rat. On the procedure:
Histamine (30 mg/kg) was subcutaneously injected to stimulate acid production. The abdomen was surgically closed immediately. Four hours later the esophagus was ligated and the stomach was removed. Acid output was measured as described above.

Data set [3] can be described thus: Relative plasma concentration of OMEPRAZOLE in male rat after oral administration.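 For all read-outs here: Sprague-Dawley rats fasted one day with water available, dosed orally with prodrug compounds, OMEPRAZOLE quantified by HPLC in plasma from serial blood draws, control given OMEPRAZOLE itself orally.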 As to conditions: for Relative concentration of OMEPRAZOLE released in the plasma: male rat, examples 2 mg/kg, OMEPRAZOLE 4 mg/kg.
Description: Male adult rats of the Sprague-Dawley strain were used for determining the concentration of OMEPRAZOLE in the plasma. All rats were derived of food but not of water for one day. Examples of compounds of the invention (2 mg/kg of rat weight) were orally administrated to male rats (weighing 250 g to 270 g) and blood samples (0.3 ml) were taken at timed intervals. Blood samples were centrifuged and plasma was taken out. Plasma was extracted with 0.5 ml of dichloromethane. Dichloromethane layer was evaporated by nitrogen/air blowing. The residual materials were dissolved in 0.5 ml of 40% acetonitrile in 10 mM phosphate buffer (pH 7.4). Amounts of OMEPRAZOLE were determined by HPLC analysis. As a control, OMEPRAZOLE (4 mg/kg of rat weight) was orally administrated.
Data set [4] can be described thus: Acid stability in 95% methanol containing 0.1N HCl. The format is physicochemical. The settings on record: after 2.25 hour in 95% methanol containing 0.1N HCl. On the procedure:
Acid stability of the compounds was assayed in 95% methanol containing 0.1N HCl. Approximately 90% of the compound of Example 1 was still present intact (without decomposition) after 2.25 hour in this solution.

A short description of data set [5]: Solubility in aqueous buffer. The format is physicochemical.
The mark [6] stands for this setting: after 5.75 hr hydrolysis at pH 7.4, 10 μM.

Several values for one entry are separate records, joined by “and”; a condition that tells them apart may be missing. Equal values may be shown once.

T1 sequence (P19156 2-1034 limits assumed): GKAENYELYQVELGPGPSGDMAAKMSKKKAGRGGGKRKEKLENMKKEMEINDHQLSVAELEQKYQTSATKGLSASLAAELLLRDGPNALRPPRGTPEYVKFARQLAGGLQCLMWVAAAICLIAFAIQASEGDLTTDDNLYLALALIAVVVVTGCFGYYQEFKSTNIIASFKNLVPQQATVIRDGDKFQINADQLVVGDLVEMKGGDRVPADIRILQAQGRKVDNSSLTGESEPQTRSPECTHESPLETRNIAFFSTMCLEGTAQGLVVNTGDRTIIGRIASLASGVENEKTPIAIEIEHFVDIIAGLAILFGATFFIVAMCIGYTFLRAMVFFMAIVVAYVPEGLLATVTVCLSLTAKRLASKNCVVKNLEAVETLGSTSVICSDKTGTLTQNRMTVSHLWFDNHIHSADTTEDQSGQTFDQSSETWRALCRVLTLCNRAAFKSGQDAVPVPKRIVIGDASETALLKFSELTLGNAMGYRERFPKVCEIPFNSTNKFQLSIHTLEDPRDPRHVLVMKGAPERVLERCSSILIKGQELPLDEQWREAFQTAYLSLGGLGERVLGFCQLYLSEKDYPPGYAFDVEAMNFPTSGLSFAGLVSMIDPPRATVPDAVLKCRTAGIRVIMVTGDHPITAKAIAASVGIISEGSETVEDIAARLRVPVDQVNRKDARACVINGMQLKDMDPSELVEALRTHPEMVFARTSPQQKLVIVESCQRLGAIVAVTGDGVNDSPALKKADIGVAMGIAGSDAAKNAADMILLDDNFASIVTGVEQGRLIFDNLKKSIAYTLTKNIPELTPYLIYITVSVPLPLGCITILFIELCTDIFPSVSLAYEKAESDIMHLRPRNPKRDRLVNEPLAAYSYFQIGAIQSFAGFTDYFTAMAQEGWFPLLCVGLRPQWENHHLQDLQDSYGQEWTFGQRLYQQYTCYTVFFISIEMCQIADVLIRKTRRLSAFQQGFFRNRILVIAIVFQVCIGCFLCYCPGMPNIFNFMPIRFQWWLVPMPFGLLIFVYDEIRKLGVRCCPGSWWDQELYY
T1 sequence (P18434 whole entry partner): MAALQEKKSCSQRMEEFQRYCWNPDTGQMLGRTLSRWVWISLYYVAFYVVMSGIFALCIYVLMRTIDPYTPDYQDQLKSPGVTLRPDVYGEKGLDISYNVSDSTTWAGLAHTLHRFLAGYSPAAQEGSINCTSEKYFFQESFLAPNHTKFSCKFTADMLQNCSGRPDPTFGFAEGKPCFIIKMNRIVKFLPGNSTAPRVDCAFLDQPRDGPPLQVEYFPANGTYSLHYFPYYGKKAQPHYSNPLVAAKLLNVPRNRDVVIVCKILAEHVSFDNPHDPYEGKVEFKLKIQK

On to `COc1ccc2[nH]c([S+]([O-])Cc3ncc(C)c(OC)c3C)nc2c1` (stereo not drawn) [OMEPRAZOLE, 5-methoxy-2-[(3,5-dimethyl-4-methoxy-2-pyridyl)methylsulfinyl]-1H-benzimidazole, reference compound], for which the inhibition at 10 µM against gastric H,K-ATPase (setting [6]) worked out at 91%. Besides, the “inhibition of gastric H,K-ATPase activity after 5.75 hr hydrolysis” value on gastric H,K-ATPase (setting [6]) is “the same level of inhibition”. Besides, the “% inhibition of gastric acid secretion” value in data set [1] is 19.6% and 19.6 ± 3.9%. The “inhibition of histamine-stimulated acid output” value in data set [2] was found to be 54.6%. Moreover, the “Relative concentration of OMEPRAZOLE released in the plasma” value in data set [3] (20 min after oral administration) came out at 28 arbitrary unit; in data set [3] (40 min after oral administration) it was 4 arbitrary unit; in data set [3] (60 min after oral administration), 2 arbitrary unit; in data set [3] (80 min after oral administration), 1 arbitrary unit. Further, the “time until OMEPRAZOLE has completely disappeared from the plasma” value in data set [3] (administrated to male rat (control)) is at most 1.5 h.
For “1-Benzenesulfonyl-5-methoxy-2-[(3,5-dimethyl-4-methoxy-2-pyridyl)methylsulfinyl]-1H-benzimidazole and 1-Benzensulfonyl-6-methoxy-2-[(3,5-dimethyl-4-methoxy-2-pyridyl)methylsulfinyl]-1H-benzimidazole [Example 1]”, the “inhibition of enzyme activity after 80 minutes” value is listed as 10% on gastric H,K-ATPase (10 μM) and 50% against gastric H,K-ATPase (50 μM). Moreover, the “inhibition of gastric H,K-ATPase activity after 5.75 hr hydrolysis” value against gastric H,K-ATPase (setting [6]) is recorded as “the same level of inhibition”; on gastric H,K-ATPase (after 5.75 hr hydrolysis at pH 7.4, 10 μM, listed as 1-benzenesulfonyl-5-methoxy-2-[(3,5-dimethyl-4-methoxy-2-pyridyl)methylsulfinyl], 10 µM), 91%. The entries for the “inhibition of gastric H,K-ATPase activity initially (before hydrolysis)” value against gastric H,K-ATPase and against gastric H,K-ATPase (listed as 1-benzenesulfonyl-5-methoxy-2-[(3,5-dimethyl-4-methoxy-2-pyridyl)methylsulfinyl]) were “failed to inhibit enzyme activity” and “did not inhibit”, respectively. The “compound still present intact (without decomposition)” value in data set [4] is listed as “Approximately 90%”. Further, the “solubility in aqueous buffer (comparison)” value in data set [5] was “slightly higher solubility in aqueous buffer than the compound of Example 19”.
With “2-{2-carbamoylmethoxy-4-[5-methoxy-2-((4-methoxy-3,5-dimethyl pyridin-2-yl)methylsulfinyl)benzimidazole-1-sulfonyl]phenoxy}acetamide and 2-{2-carbamoylmethoxy-4-[6-methoxy-2-((4-methoxy-3,5-dimethyl pyridin-2-yl)methylsulfinyl)benzimidazole-1-sulfonyl]phenoxy}acetamide [Example 74]”, the “gastric acid secretion after administration to male rat (in words)” value in data set [1] (administrated to male rat) was “significantly and continuously inhibited”. Further, the “% inhibition of gastric acid secretion” value in data set [1] turned out to be 49.7 ± 3.7%; in data set [1] (listed as 2-{2-carbamoylmethoxy-4-[5-methoxy-2-(4-methoxy-3,5-dimethyl pyridin-2-yl)metha), 49.7%. Moreover, the “inhibition of histamine-stimulated acid output” value in data set [2] is given as 64.2%.

Broadly, the inhibition is the drop in the measured response relative to a control, in per cent.
